Columns and labels:
brain [1] = assay: Tissue distribution of 5-halothiophene-2-isopropylamines in Fisher rats; type: in vivo; conditions: in words
Excerpt: 5-HALOTHIOPHENE-2-ISOPROPYLAMINES
Mean Brian. % Dose/gm (Mean Brain:Blood)

lungs = conditions: versus HIPDM; cited from earlier work
brain [2] = conditions: five minutes after administration; versus HIPDM; cited from earlier work

Row | Compound | brain retention (brain [1]) | brain uptake (brain [1]) | brain-to-blood ratios (brain [1]) | clearance of the lungs relative to HIPDM (lungs) | amount of activity in the brain relative to HIPDM (brain [2])
1 | CC(N)Cc1ccc([82Br])s1 (stereo not shown) [Br-82, 2-(2-aminopropyl)-5-bromothiophene] | good brain uptake and retention | good brain uptake |  |  | 
2 | CC(N)Cc1ccc([125I])s1 (stereo not shown) [Compound I-125, 2-(2-aminopropyl)-5-radiohalothiophene] | good retention | high brain uptake | high brain-to-blood ratios |  | 
3 | CC(C)NC(C)Cc1ccc(I)cc1 (stereo not shown) [IMP, N-isopropyl-p-iodoamphetamine] |  |  |  | faster | almost twice
